# In patent US6537545B1, “Use of corneal hardening agents in enzymeorthokeratology” (ISTA Pharmaceuticals, Inc., priority 1998, dated 2003):
# How the values were obtained:
# Dutch Belted rabbit eyes = test: GLP safety study, slit lamp biomicroscopy and intraocular pressure (Example 3); format: in vivo
# Protocol: This study was conducted in compliance with the Good Laboratory Practices requirements of the U.S. Food and Drug Administration. Here, 27 eyes were randomly chosen to form the control group and the remaining 27 eyes formed the experimental group. All of the animals received ophthalmic examinations consisting of slit lamp biomicroscopy (as described in Experiment 2) and intraocular pressure measurements (IOP) as generally practiced in the art, before the experiment began to establish baseline conditions.
# Following baseline examinations, all rabbits received 500 IU in 20 μL of hyaluronidase into the corneal stroma bilaterally using the injection method described in Experiment 1. No examinations or treatments were performed on the animals until Study Day 8. On Study Day 8, the animals received slit lamp examinations and IOP measurements.
# Treatment with topical eyedrops began immediately after the Day 8 examinations. Each rabbit received 2 drops of test agent four times a day at 05:00, 09:00, 13:00 and 17:00. The 3% glyceraldehyde solution was prepared in 0.9% sodium chloride USP under Good Manufacturing Practices (GMP). The 0.9% sodium chloride for injection was also prepared using GMP. Each rabbit eye in the experimental group received the 3% glyceraldehyde solution while the control eyes received a 0.9% sodium chloride solution. […]
# [1] = tested on: eyes of non-sighted human patients; test: Safety of enzymatic corneaplasty with hyaluronidase and topical 3% glyceraldehyde in seven non-sighted human patients (Example 6); format: in vivo; settings: 500 IU hyaluronidase, lenses, 3% glyceraldehyde 2 drops 4 times per day, 28 days
# Protocol: The methodology used in this study was similar to that discussed in Example 4. Subjects were injected intrastromally with 500 IU of a hyaluronidase solution on the first day of the study following an initial eye examination. The injected enzyme was allowed to digest the corneal substrate for seven (7) days. At that time contact lenses were fitted to the treated eyes of the subjects. The subjects wore the lenses for another seven days at which time the topical application of the 3% glyceraldehyde solution was first applied. The 3% glyceraldehyde solution was applied at 2 drops, 4 times per day for the following 28 days. At the end of the 28 days the contact lenses were removed and the glyceraldehyde treatments were ceased.
# The subjects were examined and data was recorded throughout the treatment period and following the cessation of treatment. […] The only apparent negative effects of the treatment were incidents of edema and minor manifestations of SPK. These negative manifestations resolved favorably for most patients.
structure (smiles),measurement,setting,value
O=CC(O)CO (stereo not drawn) [glyceraldehyde],overall deleterious effects in rabbits,"Dutch Belted rabbit eyes; 3% glyceraldehyde solution, 32 days",no significant deleterious effects
same,"number of the 14 criteria (slit lamp findings, IOP) with statistically significant differences between control and glyceraldehyde treated groups","Dutch Belted rabbit eyes; 27 rabbits, 500 IU hyaluronidase bilaterally, 3% glyceraldehyde 2 drops four times a day, 32 days vs 0.9% sodium chloride, any timepoint",None
same,negative effects of enzyme injection or glyceraldehyde application,[1],no significant negative effects
